This is an account of results in US5296493A, “1-substituted-2-(N-pheny l-N-(phenylmethyl)methanamine)-4,5-dihydro-imidazoles and related compounds and their use in treating calcium overload in brain cells” (NeuroSearch A/S, priority 1991, dated 1994).

The structures appear in SMILES notation. Counter-ions that a name gives are not always drawn.

The assay has as its system voltage operated calcium channels. Nature of the assay: Inhibition of potassium (depolarization) stimulated 45Ca uptake into rat cerebral cortex synaptosomes. The format is biochemical, male Wistar rat. The following applies: concentration inhibiting 20% of potassium stimulated 45Ca uptake, corrected for basal uptake, 145 mM KCl, 15 seconds, 37° C. From the text:
A high influx of calcium from extracelluar compartments into neurons is seen after opening of voltage operated calcium channels. Such opening of calcium channels may be induced by depolarization of neuronal membranes.
A crude synaptosome preparation contains small vesicles surrounded by neuronal membranes, and it is possible to study an opening of the voltage operated calcium channels in such a preparation.
In the below described test influx of ^45 Ca into synaptosomes is studied under depolarized conditions. The effect of test substances on the depolarization induced calcium uptake can thus be studied.
The cerebral cortex from a male Wistar rat is homogenized in 20 ml ice cold 0.32M saccharose. In the following steps the temperature is kept at 0° C. to 4° C. The homogenate is centrifuged at 1,000×g for 10 minutes and the supernatant recentrifuged for 20 minutes at 18,000×g. […]
The ^45 Ca uptake is stopped by filtering through glass fibre filters, which are subsequently washed 3 times with an ice cold solution of 145 mM KCl, 7 mM EGTA and 20 mM Tris HCl, pH 7.4 (5. ml). The radioactivity on the filters are measured by liquid scintillation spectrometry. […]
The test value is given as IC20, that is the concentration in μM of the test substances, which inhibit 20% of the potassium stimulated uptake of ^45 Ca. […] The IC20 value is determined from a dose response curve.

With `O=C(c1ccccc1)C(c1ccccc1)N1CCN=C1CN(Cc1ccccc1)c1ccccc1` (stereo not drawn) [1-(α-Benzoylbenzyl)-2-(N-phenyl-N-(benzyl)-methanamine)-4,5-dihydro-imidazole], the IC20 worked out at 400 nM. With `c1ccc(CN2CCN=C2CN(Cc2ccccc2)c2ccccc2)cc1` [1-benzyl-2-(N-phenyl-N-benzyl-methanamine)-4,5-dihydro-imidazole, hydrochloride], the IC20 came to 400 nM.

The IC20 is the concentration at which the effect reaches the 20% level.
